{
  "source": "patent US20050054097A1",
  "about": "“EX-VIVO expansion of hematopoietic system cell populations in mononuclear cell cultures” (priority 2002, published 2005)",
  "key": {"[1]": {"tested_on": "cord blood mononuclear cells (MNC)", "experiment": "Ex-vivo expansion of CD34+ cells in mononuclear cell (MNC) cultures; CD34+ cells reselected and counted", "format": "cell-based, human", "conditions": "for cumulative number of CD34+ cells per culture bag: cytokines, eight weeks incubation; for Number of CD34+ cells (×10^4) / Portion of CD34+ cells (%): 8 weeks"}, "[2]": {"tested_on": "cord blood mononuclear cells (MNC)", "experiment": "FACS analysis of reselected CD34+ cell subsets (CD34+CD38-, CD34+Lin-) from MNC cultures", "format": "cell-based, human", "conditions": "for CD34+Lin- cells by FACS from reselected CD34+ cell fraction: MNC with RAR antagonists and cytokines; for cumulative number of CD34+CD38- cells: cytokines", "method": "Surface antigen analysis: Cells were harvested, washed with a PBS solution containing 1% bovine sera albumin (BSA) and 0.1% sodium azide (Sigma), ind stained at 4° C. for 60 minutes with fluorescein isothiocyanate or phycoerythrin-conjugated antibodies (all from Immunoquality Products, the Netherlands). The cells were then washed with the same buffer and analyzed by FACS caliber or Facstarplus flow cytometers. Cells were passed at a rate of 1000 cells/second, using saline as the sheath fluid. A 488 nm argon laser beam served as the light source for excitation. Emission of ten thousand cells was measured using logarithmic amplification, and analyzed using CellQuest software.\nReselected CD34+ cell subsets were stained for the following combination of antigens: CD34PE/CD38FITC and CD34PE/38-, 33-, 14-, 15-, 3, 4, 61, 19 (Lin) FITC.\nFACS analysis results are given as percentage values of cells. Absolute numbers of subsets are calculated from the absolute number of CD34+ cells.\nDetermination of baseline levels of CD34^+/CD38− and CD34^+/Lin^− cells was conducted as follows: CD34+ cells were purified from 3 thawed cord blood units and stained for the above markers. The mean of these experiments was considered as the baseline value.\n(§1) Total cell counts, numbers of CD34+ cells and subsets, and CFU numbers are presented as cumulative numbers, with the assumption that the cultures had not been passaged; i.e., the number of cells per ml were multiplied by the number of passages performed."}, "[3]": {"tested_on": "cord blood mononuclear cells (MNC)", "experiment": "Morphological assessment of long-term MNC cultures (May-Grunwald/Giemsa)", "format": "cell-based, human", "conditions": "long-term TEPA-treated MNC cultures", "source_text": "Morphological assessment: Morphological characterization of the resulting culture populations was accomplished on aliquots of cells deposited on glass slides via cytospin (Cytocentrifuge, Shandon, Runcorn, UK). Cells were fixed, stained with May-Grunwald/Giemsa stain and examined microscopically."}, "[4]": {"tested_on": "cord blood mononuclear cells (MNC)", "experiment": "Colony forming unit (CFU) ability of MNC cultures", "format": "cell-based, human", "conditions": "MNC culture, cytokines, TEPA 5-10 μM for first three weeks", "method": "as §1\nAssaying Colony Forming Unit (CFU) ability: Cells were cloned in semi-solid, methylcellulose-containing medium supplemented with 2 IU/ml erythropoietin (Eprex, Cilag AG Int., Switzerland), stem cell factor and IL-3, both at 20 ng/ml, and G-CSF and GM-CSF, both at 10 ng/ml (all from Perpo Tech). Cultures were incubated for 14 days at 37° C., 5% CO2 in a humidified atmosphere.\nDetermination of LTC-CFUc values: The ability of the cultures to maintain self-renewal was measured by determination of the content of colony forming unit cells in the long and extended long-term cultures (LTC-CFUc), as described in the references hereinabove."}, "CD34+ cell cultures": {"tested_on": "CD34+ cell cultures", "conditions": "early acting cytokines, 5-10 μM TEPA (b8), atomic absorption; cited from earlier work"}, "[5]": {"tested_on": "cord blood mononuclear cells (MNC)", "experiment": "Ex-vivo expansion of CD34+ cells in mononuclear cell (MNC) cultures; CD34+ cells reselected and counted", "format": "cell-based, human", "conditions": "for cumulative number of CD34+ cells: MNC culture, cytokines, TEPA 5-10 μM for first three weeks", "method": "Sample collection and processing: Samples were obtained from umbilical cord blood after a normal full-term delivery and were frozen within 24 hours pospartum. The blood cells were thawed in Dextran buffer and incubated for 15 hours in MEM (Biological Industries, Israel) supplemented with 10% fetal calf serum (FCS; Biological Industries). The cells were then layered on Ficoll-Hypaque (density 1.077 gram/ml; Sigma) and centrifuged at 400 g for 30 minutes at room temperature. The mononuclear cells in the interface layer were then collected, washed three times in phosphate-buffered saline (PBS; Biological Industries), and re-suspended in PBS containing 0.5% human serum albumin (HSA). The cells were then split into two fractions, the first being the mononuclear cells (MNC) fraction and the second fraction was used for purifying CD34^+ cells by immunomagnetic separation using the “MiniMACS CD34^+ progenitor cell isolation kit” (Miltenyi Biotec, Auburn, Calif.) according to the manufacturer's recommendations. The purity of the CD34^+ cells obtained ranged between 95% and 98%, based on Flow Cytometry evaluation.\nEx-vivo expansion of hematopoietic stem cells: The Mononuclear cells (MNC), obtained as described hereinabove, were plated in 24-well Costar Cell Clusters (Corning Inc., Corning, N. Y.) or seeded in Culture Bags (American Fluoroseal Corp.), with alpha minimal essential medium (a-MEM) supplemented with 10% fetal bovine serum (FBS, Biological Industries), at a concentration of about 10^6 cells/ml. […]\nDetermination of CD34+ cells and subsets: CD34+ surface expression on short and long-term cultures initiated either with purified CD34+ cells or the entire MNC fraction was determined as follows: CD34+ cells were positively reselected (Miltenyi kit) and counted. […]\nMononuclear cells (MNC) were seeded in culture bags and were provided with nutrients and cytokines (50 ng/ml FLt3, IL-6, TPO and SCF) as described above. […] The cultures were analyzed weekly during a 12-week period for the number of cells, CFUc, CD34+ and CD34+CD38− cells. […]"}, "[6]": {"conditions": "cytokines + RAR antagonist 10^-6 M, 2 weeks"}, "[7]": {"conditions": "cytokines + RAR antagonist 10^-6 M, 5 weeks"}},
  "data": [
    {"compound": "CCc1ccc(C2=CC(C)(C)Sc3ccc(C#Cc4ccc(C(=O)O)cc4)cc32)cc1", "note": "[RAR antagonist]", "values": [
      {"measurement": "No of CD34 cells × 10^4", "setting": "[1]; [6]", "result": "169 × 10^4"},
      {"measurement": "No of CD34 cells × 10^4*", "setting": "[1]; [7]", "result": "985 × 10^4"},
      {"measurement": "CD34+Lin- cells by FACS from reselected CD34+ cell fraction", "setting": "[2]; 2 weeks after initial seeding", "result": 78, "unit": "%"},
      {"measurement": "CD34+Lin- cells by FACS from reselected CD34+ cell fraction", "setting": "[2]; 5 weeks after initial seeding", "result": 24, "unit": "%"},
      {"measurement": "% CD34/Lin-", "setting": "[2]; [6]", "result": 78.4, "unit": "%"},
      {"measurement": "No of CD34+/Lin- × 10^4", "setting": "[2]; [6]", "result": "132.5 × 10^4"},
      {"measurement": "% CD34/Lin-", "setting": "[2]; [7]", "result": 24.1, "unit": "%"},
      {"measurement": "No of CD34+/Lin- × 10^4*", "setting": "[2]; [7]", "result": "237.8 × 10^4"}
    ]},
    {"compound": "tetraethylenepentamine-copper chelate [Cu-TEPA chelate]", "values": [
      {"measurement": "cumulative number of CD34+ cells per culture bag", "setting": "[1]; 50 μM Copper-TEPA for first three weeks", "result": "12.37×10^6 cells per culture bag"},
      {"measurement": "cumulative number of CD34+ cells per culture bag", "setting": "[1]; 100 μM Copper-TEPA for first three weeks", "result": "32.85×10^6 cells per culture bag"},
      {"measurement": "Number of CD34+ cells (×10^4)", "setting": "[1]; Cu-TEPA chelate 50 μM", "result": "1237.3 ×10^4"},
      {"measurement": "Portion of CD34+ cells (%)", "setting": "[1]; Cu-TEPA chelate 50 μM", "result": 1.4, "unit": "%"},
      {"measurement": "Number of CD34+ cells (×10^4)", "setting": "[1]; Cu-TEPA chelate 100 μM", "result": "3285.3 ×10^4"},
      {"measurement": "Portion of CD34+ cells (%)", "setting": "[1]; Cu-TEPA chelate 100 μM", "result": 1.2, "unit": "%"},
      {"measurement": "cumulative number of CD34+CD38- cells", "setting": "[2]; 100 μM Copper-TEPA for first three weeks, eight weeks incubation", "result": "6.1×10^5"},
      {"measurement": "Number of CD34/38- cells (×10^4)", "setting": "[2]; Cu-TEPA chelate 100 μM, 8 weeks", "result": "61 ×10^4"}
    ]},
    {"compound": "NCCNCCNCCNCCN", "note": "[TEPA, tetraethylenepentamine]", "values": [
      {"measurement": "cumulative number of CD34+CD38- cells", "setting": "[2]; MNC culture, TEPA 5-10 μM for first three weeks, after 2 weeks", "result": "non-detectable"},
      {"measurement": "cumulative number of CD34+CD38- cells", "setting": "[2]; MNC culture, TEPA 5-10 μM for first three weeks, after 12 weeks", "result": "2.5×10^7 cells/ml"},
      {"measurement": "morphological analysis of cells from long-term cultures", "setting": "[3]", "result": "a high proportion of non-differentiated cells"},
      {"measurement": "number of CD34+ CFUs", "setting": "[4]; after 2 weeks", "result": "non-detectable"},
      {"measurement": "number of CD34+ CFUs", "setting": "[4]; after 10 weeks", "result": "3.2×10^7 cells/ml"},
      {"measurement": "reduction of cell copper content", "setting": "CD34+ cell cultures", "result": 30, "unit": "%"},
      {"measurement": "cumulative number of CD34+ cells", "setting": "[5]; after 2 weeks", "result": "non-detectable"},
      {"measurement": "cumulative number of CD34+ cells", "setting": "[5]; after 12 weeks", "result": "over 8×10^7 cells/ml"},
      {"measurement": "stem and progenitor cells densities versus pre-purified CD34+ cell cultures (not treated with TEPA)", "setting": "[5]; TEPA-treated MNC cultures, 12-week period", "result": "either equalized or surpassed"}
    ]}
  ]
}
